Experimental data as given in US8435978B2, “Substituted sulfonamide compounds” (Gruenenthal GmbH, priority 2006, dated 2013).

Columns and labels:
B1R receptor of the rat = target: T1, B1R receptor of the rat (Rattus norvegicus, UniProt P97583); test: Functional study on the bradykinin receptor 1 (B1R), FLIPR Ca2+ assay, rB1R cells; type: cell-based; details: CHO-K1, test substance 10 μM, agonist Des-Arg9-bradykinin 100 nM, % inhibition compared with the maximum achievable inhibition, read-out: B1R Antagonism, rat [10 μM] % Inhibition
T1 construct: host or cells: CHO K1 cells (Chinese hamster ovary), stably transfected
T1 sequence (P97583 1-337): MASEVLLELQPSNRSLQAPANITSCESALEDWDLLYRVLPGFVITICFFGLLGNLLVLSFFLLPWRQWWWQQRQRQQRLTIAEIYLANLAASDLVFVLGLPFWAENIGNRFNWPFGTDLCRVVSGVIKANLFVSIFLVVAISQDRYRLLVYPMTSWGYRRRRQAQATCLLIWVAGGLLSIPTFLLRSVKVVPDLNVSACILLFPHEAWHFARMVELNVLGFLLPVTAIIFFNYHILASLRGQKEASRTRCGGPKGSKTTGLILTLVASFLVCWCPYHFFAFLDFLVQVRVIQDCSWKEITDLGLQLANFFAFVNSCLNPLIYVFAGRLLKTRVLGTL
Summary of the method: (§1)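 FLIPR Ca2+ assay in recombinant CHO K1 cells (human or rat B1R), Fluo-4 dye; 10 μM compound, 10 min, then EC-level agonist per species (0.5 nM Lys-Des-Arg9-BK human / 100 nM Des-Arg9-BK rat). Output: % inhibition vs maximum.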

human B1R receptor = target: T2, human B1R receptor (Homo sapiens, UniProt P46663); test: Functional study on the bradykinin receptor 1 (B1R), FLIPR Ca2+ assay, hB1R cells; type: cell-based; details: CHO-K1, test substance 10 μM, agonist Lys-Des-Arg9-bradykinin 0.5 nM, % inhibition compared with the maximum achievable inhibition, read-out: B1R Antagonism, human [10 μM] % Inhibition
T2 construct: host or cells: CHO K1 cells (Chinese hamster ovary), stably transfected
T2 sequence (P46663 1-353): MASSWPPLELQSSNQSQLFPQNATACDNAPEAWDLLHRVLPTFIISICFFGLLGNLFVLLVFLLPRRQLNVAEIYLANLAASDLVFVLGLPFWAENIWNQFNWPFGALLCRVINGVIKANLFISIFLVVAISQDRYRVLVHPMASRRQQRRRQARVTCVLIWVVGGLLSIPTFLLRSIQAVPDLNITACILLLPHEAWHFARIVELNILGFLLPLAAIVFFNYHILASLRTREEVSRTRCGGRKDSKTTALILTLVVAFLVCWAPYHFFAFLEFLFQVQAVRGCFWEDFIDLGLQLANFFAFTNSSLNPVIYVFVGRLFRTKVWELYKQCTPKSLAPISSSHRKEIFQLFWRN
Summary of the method: as §1

| Compound | inhibition at 10 µM (B1R receptor of the rat) | inhibition at 10 µM (human B1R receptor) |
| --- | --- | --- |
| COc1cc(C)c(S(=O)(=O)N2CCCCC2COCC(=O)N2CCCC2c2ccc(N(C)C)cc2)c(C)c1 (stereo not shown) [Example 398, 1-(2-(4-(dimethylamino)phenyl)pyrrolidin-1-yl)-2-((1-(4-methoxy-2,6-dimethylphenylsulfonyl)piperidin-2-yl)methoxy)ethanone] | 98% | 59.8% |
| COc1cc(C)c(S(=O)(=O)N2CCCCC2COCC(=O)N2CCCC2CN2CCCCC2)c(C)c1 (stereo not shown) [Example 399, 2-((1-(4-methoxy-2,6-dimethylphenylsulfonyl)piperidin-2-yl)methoxy)-1-(2-(piperidin-1-ylmethyl)pyrrolidin-1-yl)ethanone] | 102% | 93% |
| COc1cc(C)c(S(=O)(=O)N2CCCCC2COCC(=O)N2CCCCCC2c2ccc(N(C)C)cc2)c(C)c1 (stereo not shown) [Example 400, 1-(2-(4-(dimethylamino)phenyl)azepan-1-yl)-2-((1-(4-methoxy-2,6-dimethylphenylsulfonyl)piperidin-2-yl)methoxy)ethanone] | 102% | 62% |
| COc1cc(C)c(S(=O)(=O)N2CCCCC2COCC(=O)NCCN2CCN(Cc3ccccc3)CC2)c(C)c1 (stereo not shown) [Example 401, N-(2-(4-benzylpiperazin-1-yl)ethyl)-2-((1-(4-methoxy-2,6-dimethylphenylsulfonyl)piperidin-2-yl)methoxy)acetamide] | 95.6% | 90.8% |
| COc1cc(C)c(S(=O)(=O)N2CCCCC2COCC(=O)N2CCN(c3nc(-c4ccccc4)cs3)CC2)c(C)c1 (stereo not shown) [Example 402, 2-((1-(4-methoxy-2,6-dimethylphenylsulfonyl)piperidin-2-yl)methoxy)-1-(4-(4-phenylthiazol-2-yl)piperazin-1-yl)ethanone] | 101% | 47.1% |
| O=C(COCC1CCCCN1S(=O)(=O)c1c(Cl)cccc1Cl)N1CCN(Cc2ccc(Br)cc2)CC1 (stereo not shown) [Example 406, 1-(4-(4-bromobenzyl)piperazin-1-yl)-2-((1-(2,6-dichlorophenylsulfonyl)piperidin-2-yl)methoxy)ethanone] | 100% | 103% |

Other lines, results leading:

| inhibition at 10 µM (B1R receptor of the rat) | inhibition at 10 µM (human B1R receptor) | Compound |
| --- | --- | --- |
| 100% | 101% | Cc1ccc(N2CCN(C(=O)COCC3CCCCN3S(=O)(=O)c3c(Cl)cccc3Cl)CC2)cc1C (stereo not shown) [Example 403, 2-((1-(2,6-dichlorophenylsulfonyl)piperidin-2-yl)methoxy)-1-(4-(3,4-dimethylphenyl)piperazin-1-yl)ethanone] |
| 98.5% | 55.1% | O=C(COCC1CCCCN1S(=O)(=O)c1c(Cl)cccc1Cl)N1CCN(c2ccc(Cl)c(Cl)c2)CC1 (stereo not shown) [Example 404, 1-(4-(3,4-dichlorophenyl)piperazin-1-yl)-2-((1-(2,6-dichlorophenylsulfonyl)piperidin-2-yl)methoxy)ethanone] |
| 100% | 98.6% | O=C(COCC1CCCCN1S(=O)(=O)c1c(Cl)cccc1Cl)N1CCN(Cc2ccc(Cl)c(Cl)c2)CC1 (stereo not shown) [Example 405, 1-(4-(3,4-dichlorobenzyl)piperazin-1-yl)-2-((1-(2,6-dichlorophenylsulfonyl)piperidin-2-yl)methoxy)ethanone] |
| 99% | 102% | O=C(COCC1CCCCN1S(=O)(=O)c1c(Cl)cccc1Cl)N1CCN(Cc2ccc(Cl)cc2)CC1 (stereo not shown) [Example 407, 1-(4-(4-chlorobenzyl)piperazin-1-yl)-2-((1-(2,6-dichlorophenylsulfonyl)piperidin-2-yl)methoxy)ethanone] |
| 99.8% | 102% | Cc1ccc(CN2CCN(C(=O)COCC3CCCCN3S(=O)(=O)c3c(Cl)cccc3Cl)CC2)cc1 (stereo not shown) [Example 408, 2-((1-(2,6-dichlorophenylsulfonyl)piperidin-2-yl)methoxy)-1-(4-(4-methylbenzyl)piperazin-1-yl)ethanone] |
